What was measured:
gastric secretion = assay: TEST II: inhibition of pentagastrin-stimulated gastric secretion in pylorus-ligated rats; assay type: in vivo, rat; conditions: i.m., 100 μg/kg pentagastrin s.c., 30 mins
Procedure: Male rats (220-280 g) are kept in the laboratory in individual cages for several days (14 hours light/day) with 48 hours fasting (but free access to water) immediately prior to the experiment. At start of the experiment the pylorus is ligated under ether anaesthesia and 100 μg/kg pentagastrin are injected s.c. to stimulate gastric secretion. The test compounds are injected simultaneously i.m. 30 mins. later the animals are sacrificed, the volume of gastric juice measured and the acid concentration estimated (titration with thymol blue). The acid output is calculated and the percent inhibition estimated in relation to untreated controls.
Polypeptides in accordance with the invention are active in this test when administered at a dosage in the range of from 0.01 to 100 μg/kg i.m.

[1] = system: GH-secretion (serum GH-level); assay: TEST I: depression of serum GH-levels in the rat (GH-secretion inhibition); assay type: in vivo; conditions: male rats under Nembutal narcosis, 15 minutes after administration
Procedure: This test (TEST I) is carried out employing male rats under Nembutal narcosis. The test-substance is administered at varying, logarithmically staggered doses employing at least 4 rats per dose. The rats are decapitated 15 minutes after administration, the blood is collected and the serum GH-level determined by radio-immuno-assay.
Polypeptides in accordance with the invention are active in this test when administered at a dosage in the range of from 0.01 to 100 μg/kg i.v. or i.m.

Compound | ID50 in TEST II for acid concentration (gastric secretion) | ID50 in TEST II for gastric juice content (gastric secretion) | ID50 in TEST I (amount required to effect 50% inhibition of serum GH-level compared with untreated controls) ([1]; i.m.) | ID50 in TEST I (amount required to effect 50% inhibition of serum GH-level compared with untreated controls) ([1]; i.v.)
C[C@@H](O)[C@@H]1NC(=O)[C@H](CCCCN)NC(=O)[C@@H](Cc2c[nH]c3ccccc23)NC(=O)[C@H](Cc2ccccc2)NC(=O)[C@@H](NC(=O)[C@H](N)Cc2ccccc2)CSSC[C@@H](C(=O)N[C@H](CO)[C@@H](C)O)NC1=O [Example 1] | 0.0004 mg/kg | 0.0007 mg/kg | – | –
C[C@H](N)C(=O)NCC(=O)N[C@H]1CSSC[C@@H](C(=O)O)NC(=O)[C@H](CO)NC(=O)[C@H]([C@@H](C)O)NC(=O)[C@H](Cc2ccccc2)NC(=O)[C@H]([C@@H](C)O)NC(=O)[C@H](CCCCN)NC(=O)[C@H](Cc2c[nH]c3ccccc23)NC(=O)[C@H](Cc2ccccc2)NC(=O)[C@H](Cc2ccccc2)NC(=O)[C@H](CC(N)=O)NC(=O)[C@H](CCCCN)NC1=O [somatostatin] | 0.035 mg/kg | 0.055 mg/kg | 0.0056 mg/kg | 0.062 mg/kg
